In patent US20170107579A1, “E1 ENZYME MUTANTS AND USES THEREOF” (Millennium Pharmaceuticals, Inc., priority 2011, published 2017):

Assays:
wild type UBA3 (NAE) = biological target: T1, wild type UBA3 (NAE) (Homo sapiens, UniProt Q8TBC4); test: NAE HTRF assay, IC50 at KM for ATP (20 μM); assay type: biochemical; conditions: read-out: NAE WT IC50
T1 construct: His; made in house; host or cells: E. coli Rosetta (DE3), co-expression
Procedure: (§1) The enzyme reversibility assay was run in the FLAG-NEDD8-GST-UBC12 HTRF transthiolation assay described previously (Soucy et al., 2009, Brownell et al., 2010). Final concentrations of each enzyme after dilution were 10 pM WT NAEβ, 12.5 pM A171T NAEβ, 30 pM N209K NAEβ, and 33 pM E204K/G201V NAEβ.
(§2) IC50 measurements were performed in the HTRF assay described in Example 6. Assays for each enzyme were performed at their KM for ATP (20 μM for wild type, 120 μM for the A171T mutant).
(§3) An NAE enzymatic reaction totals 50 μL and contains 50 mM HEPES (pH 7.5), 0.05% BSA, 5 mM MgCl2, 20 μM ATP, 250 μM GSH, 0.01 μM UBC12-GST, 0.075 NEDD8-Flag and 0.28 nM recombinant human NAE enzyme. The enzymatic reaction mixture, with and without compound inhibitor, is incubated at 24° C. for 90 minutes in a 384-well plate before termination with 25 μL of Stop/Detection buffer (0.1M HEPES pH 7.5, 0.05% Tween20, 20 mM EDTA, 410 mM KF, 0.53 nM Europium-Cryptate labeled monoclonal anti-FLAG M2 antibody (CisBio International) and 8.125 μg/mL PHYCOLINK goat anti-GST allophycocyanin (XL-APC) antibody (Prozyme)). After incubation for 3 hours at 24° C., quantification of the FRET is performed on the Analyst™ HT 96.384 (Molecular Devices).

[1] = biological target: T2, UBA3 variant with A171T mutation (NAE) (Homo sapiens, UniProt Q8TBC4, A171T); test: NAE HTRF assay, IC50 at KM for ATP (120 μM); assay type: biochemical; conditions: for IC50: UBA3 A171T mutant, HTRF assay at KM for ATP, 120 μM; for A171T/WT: ratio of IC50 A171T mutant to IC50 wild type
T2 construct: His; made in house; host or cells: E. coli Rosetta (DE3), co-expression
T2 sequence (Q8TBC4 whole entry A171T): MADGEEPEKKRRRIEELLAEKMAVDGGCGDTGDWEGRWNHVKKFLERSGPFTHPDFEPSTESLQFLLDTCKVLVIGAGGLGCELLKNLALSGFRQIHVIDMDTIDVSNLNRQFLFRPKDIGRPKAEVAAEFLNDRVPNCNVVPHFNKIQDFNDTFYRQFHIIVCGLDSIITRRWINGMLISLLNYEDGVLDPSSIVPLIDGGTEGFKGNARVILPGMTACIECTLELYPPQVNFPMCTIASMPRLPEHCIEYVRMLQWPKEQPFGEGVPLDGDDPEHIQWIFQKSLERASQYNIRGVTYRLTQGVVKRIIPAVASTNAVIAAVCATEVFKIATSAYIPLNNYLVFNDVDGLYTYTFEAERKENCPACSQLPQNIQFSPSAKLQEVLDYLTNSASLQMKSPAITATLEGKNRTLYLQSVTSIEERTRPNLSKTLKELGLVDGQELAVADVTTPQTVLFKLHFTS
T2 sequence (Q13564 whole entry partner): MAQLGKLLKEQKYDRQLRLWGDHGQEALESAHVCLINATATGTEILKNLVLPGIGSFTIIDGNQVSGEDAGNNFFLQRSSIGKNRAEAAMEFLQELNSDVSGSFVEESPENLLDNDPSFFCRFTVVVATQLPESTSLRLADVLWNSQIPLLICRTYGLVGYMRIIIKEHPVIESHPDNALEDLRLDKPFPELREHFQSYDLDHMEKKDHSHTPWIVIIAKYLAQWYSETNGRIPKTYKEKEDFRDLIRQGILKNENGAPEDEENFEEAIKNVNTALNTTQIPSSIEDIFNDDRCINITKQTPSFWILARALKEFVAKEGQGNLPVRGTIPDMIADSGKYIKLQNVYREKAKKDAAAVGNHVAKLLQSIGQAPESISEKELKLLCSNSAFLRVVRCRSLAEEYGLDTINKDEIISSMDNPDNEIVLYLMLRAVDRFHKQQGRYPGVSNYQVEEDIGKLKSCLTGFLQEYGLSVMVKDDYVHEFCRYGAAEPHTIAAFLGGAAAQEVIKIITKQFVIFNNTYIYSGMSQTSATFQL
T2 sequence (Q15843 1-76 partner limits assumed): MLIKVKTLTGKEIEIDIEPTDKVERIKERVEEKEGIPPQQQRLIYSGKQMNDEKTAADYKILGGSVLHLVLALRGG
Procedure: as §1, §2, §3

[2] = tested on: HCT-116 WT, HCT-116.1 A171T and HCT-116.4 C324Y cells; test: Drug efflux inhibitor co-incubation, ATPlite viability assay; assay type: cell-based; conditions: co-treatment with MLN4924, 96 hours
Procedure: Treatment of cells with efflux inhibitors. FIG. 8A. […] Co-incubation studies were performed with various inhibitors of drug efflux at their highest non toxic concentration.
Diypridamole (Sigma), MK571 (Tocris), GF918, K0143 (Tocris) and LY5979 were obtained from commercial sources indicated.

T1 sequence (Q8TBC4 whole entry): as the sequence (Q8TBC4 whole entry A171T) above, with T171A counted along it
T1 sequence (Q13564 whole entry partner): as the sequence (Q13564 whole entry partner) above
T1 sequence (Q15843 1-76 partner limits assumed): as the sequence (Q15843 1-76 partner limits assumed) above

Compound | IC50 (wild type UBA3 (NAE)) [nM] | IC50 [1] [nM] | A171T/WT [1] | sensitization of cells to MLN4924 by Pgp, BCRP and MRP2 inhibitors [2]
NS(=O)(=O)OCC1OC(n2cnc3c(NCc4ccccc4)ncnc32)C(O)C1O (centres unmarked) [Compound I-6] | 0.73 | 84 | 115 | 
CNc1ncnc2c1ccn2C1CC(O)C(COS(N)(=O)=O)C1 (centres unmarked) [Compound I-40] | 72 | 630 | 9 | 
Cc1ncnc2c1ccn2[C@@H]1C[C@@H](COS(N)(=O)=O)[C@@H](O)C1 [Compound I-46] | 37 | 250 | 7 | 
COc1ccc2c3c([nH]c2c1)[C@H](CC(C)C)N1C(=O)[C@H](CCC(=O)OC(C)(C)C)NC(=O)[C@@H]1C3 [Compound K0143] |  |  |  | did not sensitize
COc1cc2c(cc1OC)CN(CCc1ccc(NC(=O)c3cccc4c(=O)c5cccc(OC)c5[nH]c34)cc1)CC2 [GF120918] |  |  |  | did not sensitize
